Data as given in the supplement of paper PMC11208160.

Assay: recombinant barcode read abundance after kanamycin selection (control-corrected) (log10(CPM+1)); higher = more efficient recombination; sequences stand for … in AGTGCAGAGAAAATCGGCCAGTTTTCTCTGCCTGCAGTCCGCATGCCGT…AGATTTATGCAGCGGACTGCCTTTCTCCCAAAGTGATAAACCGGACAGTATCATGGACCGGTTTTCCCGGTAATCCGTATTTGCAAGGTTGGTTTCACT; site = the 11-nt target
Summary of the method: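 Values are log10(CPM+1) from a pooled E. coli screen of targets paired with IS621 bridge RNA target-binding loops. Recombination efficiency here means counts per million of recombinant-junction barcodes, averaged and control-corrected. Plates were chloramphenicol/ampicillin LB agar for the control and chloramphenicol/ampicillin/kanamycin with 0.1 mM IPTG, two replicates each.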
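Note: IS621 recombinase and bridge RNA in Escherichia coli cells.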

Sequence	recombinant barcode read abundance (log10)
GTACAATCTTGGGTTCTAACCTGTTGCCT (site CTACAATCTAG)	0.339
GTACAATCTTGGGTTCTAACCTGTTGCCT (site GTACAATCTAG)	1.43
GTACAATCTTGGGTTCTAACCTGTTGCCT (site TTACAATCTAG)	0.371
GTACCTACTTGGGTTCTAACCTGTTGCTA (site CGACCTACTTA)	0.0562
GTACCTACTTGGGTTCTAACCTGTTGCTA (site GTACCTACTTA)	1.33
GTACGAGCTTGGGTTCTAACCTGTTGCCG (site GTACGAGCTCG)	0.848
GTACGAGCTTGGGTTCTAACCTGTTGCCG (site GTGTGAGCTCG)	0.38
GTACGTCCTTGGGTTCTAACCTGTTGCAT (site GTACGTCCTAA)	0.133
GTACGTCCTTGGGTTCTAACCTGTTGCAT (site GTACGTCCTAC)	1.01
GTACGTCCTTGGGTTCTAACCTGTTGCAT (site GTACGTCCTAG)	0.52
GTACGTCCTTGGGTTCTAACCTGTTGCAT (site GTACGTCCTAT)	1
GTACGTCCTTGGGTTCTAACCTGTTGCCT (site GTACGTCCTAA)	0.112
GTACGTCCTTGGGTTCTAACCTGTTGCCT (site GTACGTCCTAC)	0.352
GTACGTCCTTGGGTTCTAACCTGTTGCCT (site GTACGTCCTAG)	0.482
GTACGTCCTTGGGTTCTAACCTGTTGCCT (site GTACGTCCTAT)	0.0848
GTACTACCTTGGGTTCTAACCTGTTGCCG (site ACGGAGACTAT)	0.198
GTACTACCTTGGGTTCTAACCTGTTGCCG (site GTACTACCTCG)	1.14
GTACTCTCTTGGGTTCTAACCTGTTGCAG (site CCGTCAACTAG)	0.0592
GTACTCTCTTGGGTTCTAACCTGTTGCAG (site GTACTCTCTCT)	1.33
GTAGACCCTTGGGTTCTAACCTGTTGCTG (site GTAGACCCTAC)	1.29
GTAGACCCTTGGGTTCTAACCTGTTGCTG (site GTAGACCCTCA)	2.94
GTAGAGTCTTGGGTTCTAACCTGTTGCTT (site GTAGAGTCTAA)	2.41

Sequence	recombinant barcode read abundance (log10)
GTAGAGTCTTGGGTTCTAACCTGTTGCTT (site GTGGAGTCTAG)	0.685
GTAGCCACTTGGGTTCTAACCTGTTGCCT (site GTAGCCACTAG)	2.37
GTAGCCACTTGGGTTCTAACCTGTTGCCT (site GTCGCCACTAG)	0.449
GTAGCCACTTGGGTTCTAACCTGTTGCCT (site GTGGCCACTAG)	0.791
GTAGCCACTTGGGTTCTAACCTGTTGCCT (site GTTGCCACTAG)	1.06
GTAGGCGCTTGGGTTCTAACCTGTTGCCT (site GTAGGCGCTAG)	1.96
GTAGGCGCTTGGGTTCTAACCTGTTGCCT (site GTCGGCGCTAG)	0.33
GTAGGCGCTTGGGTTCTAACCTGTTGCCT (site GTGGGCGCTAG)	0.441
GTAGGCGCTTGGGTTCTAACCTGTTGCCT (site GTTGGCGCTAG)	0.0331
GTAGGGACTTGGGTTCTAACCTGTTGCCT (site GAAGGGACTAG)	1.34
GTAGGGACTTGGGTTCTAACCTGTTGCCT (site GCAGGGACTAG)	0.806
GTAGGGACTTGGGTTCTAACCTGTTGCCT (site GGAGGGACTAG)	0.439
GTAGGGACTTGGGTTCTAACCTGTTGCCT (site GTAGGGACTAG)	1.97
GTAGGGTCTTGGGTTCTAACCTGTTGCCT (site GTAGGGTCTAG)	2.41
GTAGGGTCTTGGGTTCTAACCTGTTGCCT (site TTGGGGTCTAG)	0.324
GTATACCCTTGGGTTCTAACCTGTTGCAT (site GTATACCCTAT)	2.34
GTATACCCTTGGGTTCTAACCTGTTGCAT (site GTATACCCTTG)	0.224
GTATCCACTTGGGTTCTAACCTGTTGCTA (site GTATCCACTTA)	1.47
GTATCCACTTGGGTTCTAACCTGTTGCTA (site GTATGCCCTTA)	0.0561
GTATCCTCTTGGGTTCTAACCTGTTGCAT (site GTATCCTCTAT)	2.28
GTATCCTCTTGGGTTCTAACCTGTTGCAT (site GTATGCTCTAC)	0.0984
GTATCTCCTTGGGTTCTAACCTGTTGCGG (site GTATCTCCTCC)	0.0723

Sequence	recombinant barcode read abundance (log10)
GTATCTCCTTGGGTTCTAACCTGTTGCGG (site GTCTCACCTCC)	0.0668
GTATCTCCTTGGGTTCTAACCTGTTGCTT (site GTATCTCCTAA)	0.321
GTATCTCCTTGGGTTCTAACCTGTTGCTT (site GTATTTCCTAA)	0.136
GTATGTGCTTGGGTTCTAACCTGTTGCAA (site CTATGTGCTTC)	0.0841
GTATGTGCTTGGGTTCTAACCTGTTGCAA (site GTATGTGCTTT)	0.769
GTCAAACCTTGGGTTCTAACCTGTTGCTT (site GACAAACCTAG)	0.274
GTCAAACCTTGGGTTCTAACCTGTTGCTT (site GTCAAACCTAA)	0.46
GTCAAAGCTTGGGTTCTAACCTGTTGCCA (site GTCAAAGCTTG)	0.0767
GTCAAAGCTTGGGTTCTAACCTGTTGCCA (site GTCACAGCTAG)	0.407
GTCAACCCTTGGGTTCTAACCTGTTGCTG (site GTCAAACCTCA)	0.045
GTCAACCCTTGGGTTCTAACCTGTTGCTG (site GTCAACCCTCA)	2.49
GTCAACCCTTGGGTTCTAACCTGTTGCTG (site GTCAAGCCTCA)	0.32
GTCAACCCTTGGGTTCTAACCTGTTGCTG (site GTCAATCCTCA)	0.145
GTCAATCCTTGGGTTCTAACCTGTTGCTG (site GTCAAACCTCA)	0.00666
GTCAATCCTTGGGTTCTAACCTGTTGCTG (site GTCAACCCTCA)	0.288
GTCAATCCTTGGGTTCTAACCTGTTGCTG (site GTCAAGCCTCA)	0.193
GTCAATCCTTGGGTTCTAACCTGTTGCTG (site GTCAATCCTCA)	1.49
GTCACCGCTTGGGTTCTAACCTGTTGCCT (site GTAACCGCTAG)	0.409
GTCACCGCTTGGGTTCTAACCTGTTGCCT (site GTCACCGCTAG)	2.08
GTCACCGCTTGGGTTCTAACCTGTTGCCT (site GTGACCGCTAG)	0.129
GTCACCGCTTGGGTTCTAACCTGTTGCCT (site GTTACCGCTAG)	0.464
GTCATGGCTTGGGTTCTAACCTGTTGCCT (site GTCAGGGCTAG)	0.0945

Sequence	recombinant barcode read abundance (log10)
GTCATGGCTTGGGTTCTAACCTGTTGCCT (site GTCATGGCTAG)	0.283
GTCCACTCTTGGGTTCTAACCTGTTGCAC (site GTCCACCCTCT)	0.0658
GTCCACTCTTGGGTTCTAACCTGTTGCAC (site GTCCACTCTGT)	2.21
GTCCAGTCTTGGGTTCTAACCTGTTGCGT (site GTCCACTCTAA)	0.0578
GTCCAGTCTTGGGTTCTAACCTGTTGCGT (site GTCCAGTCTAC)	3.16
GTCCATTCTTGGGTTCTAACCTGTTGCAT (site GGACATTCTAT)	0.101
GTCCATTCTTGGGTTCTAACCTGTTGCAT (site GTCCATTCTAT)	1.56
GTCCTATCTTGGGTTCTAACCTGTTGCCA (site ACGGATCCTAT)	0.0705
GTCCTATCTTGGGTTCTAACCTGTTGCCA (site GTCCTATCTTG)	0.66
GTCGAACCTTGGGTTCTAACCTGTTGCTA (site GTCGAACCTTA)	1.79
GTCGAACCTTGGGTTCTAACCTGTTGCTA (site GTCGTAGCTTA)	0.0873
GTCGCGCCTTGGGTTCTAACCTGTTGCCT (site GTCGCGACTAG)	0.221
GTCGCGCCTTGGGTTCTAACCTGTTGCCT (site GTCGCGCCTAG)	0.271
GTCGCGCCTTGGGTTCTAACCTGTTGCCT (site GTCGCGGCTAG)	0.219
GTCGCGCCTTGGGTTCTAACCTGTTGCCT (site GTCGCGTCTAG)	0.58
GTCGGAACTTGGGTTCTAACCTGTTGCCT (site GTCGGAACTAG)	1.73
GTCGGAACTTGGGTTCTAACCTGTTGCCT (site GTCGGCACTAG)	0.329
GTCGGAACTTGGGTTCTAACCTGTTGCCT (site GTCGGGACTAG)	0.174
GTCGGAACTTGGGTTCTAACCTGTTGCCT (site GTCGGTACTAG)	0.0137
GTCGGTACTTGGGTTCTAACCTGTTGCCT (site GTCGGAACTAG)	0.115
